# Measured values published in patent US20070238680A1, “Substance and process for preventing a genetic defect from being passed onto offspring” (priority 2006, published 2007).
# Experiments:
# N/H sperm = experiment: Sperm motility after about 24 hours in potassium-fortified sperm extender, computer-assisted semen analyzer; type: cell-based, horse
# Method: (§1) Three curves are plotted—one for motility of N/N sperm, one for N/H sperm and one for H/H sperm. […] In the tests, the sperm was kept in the particular sperm extender formula for about 24 hours. It was then diluted with standard sperm extender (with the low potassium concentration) at about an 8-to-1 ratio in a bullet tube, and its motility was measured using a computer-assisted semen analyzer. Note that the bold lines on the graph are linear extrapolations between the actual data points, which are shown in squares, triangles and diamonds, and are not accurate representations of the actual values between those data points.
# N/N sperm = experiment: as above; type: cell-based, horse; conditions: for motility of the N/N sperm sample: about 24 hours, then re-extended about 8-to-1
# Method: as §1
# H/H sperm = experiment: as above; type: cell-based, horse
# Method: as §1
# As shown in the bottom-most curve in FIG. 6, as the potassium concentration increases, the motility of the H/H sperm sample drops to zero somewhere prior to 50 times the standard potassium concentration. Because all sperm in the H/H sample contain the defective sperm, we conclude that all defective sperm are immobilized at this concentration. More importantly, the sperm are permanently immobilized, as the test measured motility after the sperm sample was re-extended, restoring metabolic potassium levels.
# [1] = test system: genetically defected sperm versus healthy sperm; conditions: potassium concentration in the extra-cellular fluid in the same range for all salts
# [2] = 70 times the normal potassium concentration, extrapolated from the curve
# [3] = 100 times the normal potassium concentration
Compound,"motility percentage of N/H sperm cell sample (N/H sperm; 50 times the normal potassium concentration, about 24 hours, then re-extended about 8-to-1)",motility rate for N/H sperm cells (N/H sperm; [2]) [%],motility of the N/N sperm sample (N/N sperm; 50 times standard potassium concentration),motility rate for N/N sperm cells (N/N sperm; [2]) [%],motility of the N/N sperm sample (N/N sperm; [3]) [%],impairment of defective cells (H/H sperm; [3]),microscopic examination of the morphology of the sperm cells (H/H sperm; H/H sperm after high potassium exposure),"motility of the H/H sperm sample (H/H sperm; somewhere prior to 50 times the standard potassium concentration, about 24 hours, then re-extended about 8-to-1)",suitable triggering event that impaired genetically defected sperm without also impairing healthy sperm [1]
[Cl-].[K+] [potassium chloride],about 53%,~38,about 85%,~60,29,completely and permanently impaired,tails were permanently curled around the cell body,zero,yielded a suitable triggering event
potassium phosphate [reference compound],,,,,,,,,failed to produce such a suitable outcome
